Values joined by “and” are separate entries in the source; they are usually repeats but may differ in a detail not shown here. Equal values may be shown once.
Legend:
monoamine transporter = monoamine transporter (UniProt Q27963); conditions: membranes of chromaffin granules and brain tissue samples; cited from earlier work
[1] = Partition coefficient 1-octanol/phosphate buffer; type: physicochemical; conditions: pH 7.4, 1-octanol and phosphate buffer
Description: Partition coefficients were measured by mixing the [^18F]tracer with 3 g each of 1-octanol and buffer (0.1 M phosphate, pH 7.4) in a test tube. The test tube was vortexed for 3 min at room temperature, followed by centrifugation for 5 min. Two weighed samples (0.5 g each) from the 1-octanol and buffer layers were counted in a well counter. The partition coefficient was determined by calculating the ratio of cpm/g of 1-octanol to that of buffer. Samples from the 1-octanol layer were re-partitioned until consistent partitions of coefficient values were obtained. Values are the mean±SEM of three independent experiments, each in duplicates.

VMAT2 [2] = target: T1, VMAT2 (Mus musculus, UniProt Q8BRU6); experiment: Saturation binding of 18F ligands in mouse striatal homogenates; design: The basal forebrain regions of rat and mouse brains were then dissected; from tissue; host or cells: mouse striatal homogenate; mouse brain coronal sections; conditions: estimated based on S.A.=2000 Ci/mmole
Description: The basal forebrain regions of rat and mouse brains were then dissected. The tissue homogenates were prepared in 50 mM Hepes, pH 7.5 and 0.3 M sucrose. The specific binding of ^3H or ^18F ligands were determined following the procedures described (Scherman D, Raisman R, Ploska A, Agid Y., [^3H]Dihydrotetrabenazine, a new in vitro monoaminergic probe for human brain, J. Neurochem., 1988:50:1131-36). Total volume of reaction for the assay was 0.2 ml. […] In saturation experiments, increasing concentrations of labeled ligand […] in 50 μl buffer were incubated with 100 μl of homogenates (100-250 μg). Incubation was carried out routinely at room temperature for 90 min. The samples were then filtered through glass fiber filters No. 25 (Schleicher and Schuell, Keene, N.H.) and the bound radioactivity was determined for ^18F in a gamma counter (Packard 5000) with 70% efficiency. Filters containing bound ^3H ligand were dissolved in 7 ml Ecolite(+) overnight and the radioactivity was counted next day in the scintillation counter (Beckman) with 65% counting efficiency. […] Nonspecific binding was determined in the presence of 10 μM tetrabenazine. Both saturation and competition experiments were analyzed using the nonlinear least-square curve fitting program LIGAND. […]

[3] = Biodistribution of [18F]6a and [18F]6b in normal mice (iv injection); type: in vivo, ICR mice
Description: While under isoflurane anesthesia, 0.15 mL of a 0.1% bovine serum albumin solution containing [^18F]tracers (10-20 μCi) were injected directly into the tail vein of ICR mice (22-25 g, male) The mice (n=3 for each time point) were sacrificed by cervical dislocation at indicated time points post injection. The organs of interest were removed and weighed, and the radioactivity was counted with an automatic gamma counter. The percentage dose per organ was calculated by a comparison of the tissue counts to suitably diluted aliquots of the injected material. Total activities of blood were calculated under the assumption that they were 7% of the total body weight. The % dose/g of samples was calculated by comparing the sample counts with the count of the diluted initial dose.

[4] = Uptake in diabetic mice (FIG. 6); type: in vivo
VMAT2 [5] = target: VMAT2 (Rattus norvegicus, UniProt Q01827); experiment: Competition for [3H](±)TBZ binding in rat striatal homogenates; design: The basal forebrain regions of rat and mouse brains were then dissected; from tissue; host or cells: rat striatum / basal forebrain homogenate; conditions: [3H](±)TBZ 1.0-1.5 nM, Kd […] used for calculation
VMAT2 [6] = target: T1, VMAT2; experiment: In vitro autoradiography of mouse brain sections; type: binding

T1 sequence (Q8BRU6 whole entry): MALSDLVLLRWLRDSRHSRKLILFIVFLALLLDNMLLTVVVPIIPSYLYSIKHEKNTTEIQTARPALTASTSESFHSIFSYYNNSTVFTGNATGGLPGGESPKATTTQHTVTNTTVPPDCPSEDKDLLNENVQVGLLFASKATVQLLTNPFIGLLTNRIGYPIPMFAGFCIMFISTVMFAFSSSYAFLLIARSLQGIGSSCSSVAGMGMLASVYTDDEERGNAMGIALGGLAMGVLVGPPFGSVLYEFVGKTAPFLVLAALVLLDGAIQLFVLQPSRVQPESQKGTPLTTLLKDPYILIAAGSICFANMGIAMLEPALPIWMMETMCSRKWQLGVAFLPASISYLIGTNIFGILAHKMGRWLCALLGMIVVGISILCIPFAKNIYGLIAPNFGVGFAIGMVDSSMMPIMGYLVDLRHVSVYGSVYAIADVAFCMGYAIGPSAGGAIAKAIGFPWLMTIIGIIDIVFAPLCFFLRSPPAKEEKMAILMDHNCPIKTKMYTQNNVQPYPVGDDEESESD
VMAT2 (Rattus norvegicus, UniProt Q01827), sequence (Q01827 whole entry): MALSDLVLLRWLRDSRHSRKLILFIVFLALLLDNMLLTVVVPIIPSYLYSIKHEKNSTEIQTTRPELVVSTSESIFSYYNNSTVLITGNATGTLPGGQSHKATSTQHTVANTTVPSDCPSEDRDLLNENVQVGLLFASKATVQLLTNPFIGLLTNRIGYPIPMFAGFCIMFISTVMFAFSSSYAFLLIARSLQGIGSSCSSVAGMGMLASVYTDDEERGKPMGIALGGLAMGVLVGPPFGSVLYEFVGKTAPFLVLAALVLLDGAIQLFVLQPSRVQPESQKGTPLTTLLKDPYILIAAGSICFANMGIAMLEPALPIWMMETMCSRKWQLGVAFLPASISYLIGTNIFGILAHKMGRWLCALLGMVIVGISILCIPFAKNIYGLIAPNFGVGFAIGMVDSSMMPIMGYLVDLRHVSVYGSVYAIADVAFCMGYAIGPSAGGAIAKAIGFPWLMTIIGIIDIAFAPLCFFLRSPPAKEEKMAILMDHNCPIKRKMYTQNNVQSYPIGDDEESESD

## COc1cc2c(cc1OC)C1CC(O)C(CC(C)C)CN1CC2 (stereo not shown) [[^3H]dihydro-TBZ, 2-hydroxy-3-(2-methylpropyl)-9,10-dimethoxy-1,3,4,6,7,11b-hexahydro-2H-benzo[a]quinolizine]
Monoamine transporter
  Kd: 2 to 9 nM

## COc1cc2c(cc1OCC[18F])CCN1CC(CC(C)C)C(O)CC21 (racemic) [[^18F]6a]
[1]
  logD at 3 min: 2.12
VMAT2 [2]
  Kd: 0.52 nM
[3]; 30 min p.i., normal mice
  remaining in brain (brain washout): > 50%
[3]; mice, iv, 2 min
  brain uptake: 4.66 % ID/g
[3]; mice, iv, time not stated
  ST/CB ratio: 1.9
[3]; normal mice, iv, 2 min
  Organ distribution Blood: 2.68 ± 0.37 % dose/g
  Organ distribution Bone: 2.07 ± 0.05 % dose/g
  Organ distribution Brain: 4.66 % dose/g and 4.66 ± 0.78 % dose/g
  Organ distribution Heart: 4.49 ± 0.85 % dose/g
  Organ distribution Kidney: 10.7 ± 3.06 % dose/g
  Organ distribution Liver: 18.2 ± 4.14 % dose/g
  Organ distribution Lung: 5.83 ± 1.25 % dose/g
  Organ distribution Muscle: 0.66 ± 0.10 % dose/g
  Organ distribution Skin: 0.91 ± 0.10 % dose/g
  Organ distribution Spleen: 8.11 ± 0.90 % dose/g
  Ratio (vs CB) Cortex: 1.06
  Ratio (vs CB) Hippocampus: 1.09
  Ratio (vs CB) Striatum: 1.23
  Regional brain distribution Cerebellum (CB): 4.42 ± 0.74 % dose/g
  Regional brain distribution Cortex: 4.70 ± 0.66 % dose/g
  Regional brain distribution Hippocampus: 4.84 ± 0.72 % dose/g
  Regional brain distribution Striatum: 5.46 ± 0.80 % dose/g
[3]; normal mice, iv, 15 min
  Organ distribution Blood: 2.05 ± 0.17 % dose/g
  Organ distribution Bone: 2.40 ± 0.23 % dose/g
  Organ distribution Brain: 2.10 ± 0.25 % dose/g
  Organ distribution Heart: 1.99 ± 0.19 % dose/g
  Organ distribution Kidney: 5.51 ± 1.55 % dose/g
  Organ distribution Liver: 10.5 ± 1.48 % dose/g
  Organ distribution Lung: 2.96 ± 0.30 % dose/g
  Organ distribution Muscle: 1.01 ± 0.02 % dose/g
  Organ distribution Skin: 1.19 ± 0.03 % dose/g
  Organ distribution Spleen: 2.77 ± 0.33 % dose/g
  Ratio (vs CB) Cortex: 0.92
  Ratio (vs CB) Hippocampus: 1.18
  Ratio (vs CB) Striatum: 1.91
  Regional brain distribution Cerebellum (CB): 1.97 ± 0.22 % dose/g
  Regional brain distribution Cortex: 1.82 ± 0.19 % dose/g
  Regional brain distribution Hippocampus: 2.33 ± 0.30 % dose/g
  Regional brain distribution Striatum: 3.76 ± 0.51 % dose/g
[3]; normal mice, iv, 30 min
  Organ distribution Blood: 2.27 ± 0.11 % dose/g
  Organ distribution Bone: 3.88 % dose/g and 3.88 ± 0.47 % dose/g
  Organ distribution Brain: 2.09 ± 0.09 % dose/g
  Organ distribution Heart: 2.14 ± 0.11 % dose/g
  Organ distribution Kidney: 4.18 ± 0.33 % dose/g
  Organ distribution Liver: 8.85 ± 1.34 % dose/g
  Organ distribution Lung: 2.83 ± 0.25 % dose/g
  Organ distribution Muscle: 1.52 ± 0.07 % dose/g
  Organ distribution Skin: 1.72 ± 0.11 % dose/g
  Organ distribution Spleen: 2.62 ± 0.20 % dose/g
  Ratio (vs CB) Cortex: 1.00
  Ratio (vs CB) Hippocampus: 1.03
  Ratio (vs CB) Striatum: 1.71
  Regional brain distribution Cerebellum (CB): 1.97 ± 0.14 % dose/g
  Regional brain distribution Cortex: 1.96 ± 0.14 % dose/g
  Regional brain distribution Hippocampus: 2.02 ± 0.10 % dose/g
  Regional brain distribution Striatum: 3.37 ± 0.06 % dose/g
[3]; normal mice, iv, 1 hr
  Organ distribution Blood: 1.75 ± 0.16 % dose/g
  Organ distribution Bone: 5.84 ± 1.42 % dose/g
  Organ distribution Brain: 1.51 ± 0.20 % dose/g
  Organ distribution Heart: 1.53 ± 0.15 % dose/g
  Organ distribution Kidney: 2.27 ± 0.39 % dose/g
  Organ distribution Liver: 3.88 ± 0.40 % dose/g
  Organ distribution Lung: 1.74 ± 0.04 % dose/g
  Organ distribution Muscle: 1.05 ± 0.03 % dose/g
  Organ distribution Skin: 1.23 ± 0.06 % dose/g
  Organ distribution Spleen: 1.56 ± 0.07 % dose/g
  Ratio (vs CB) Cortex: 1.12
  Ratio (vs CB) Hippocampus: 1.05
  Ratio (vs CB) Striatum: 1.71
  Regional brain distribution Cerebellum (CB): 1.85 ± 0.20 % dose/g
  Regional brain distribution Cortex: 2.07 ± 0.42 % dose/g
  Regional brain distribution Hippocampus: 1.95 ± 0.49 % dose/g
  Regional brain distribution Striatum: 3.17 ± 0.79 % dose/g
[3]; normal mice, iv, 2 hr
  Organ distribution Blood: 1.38 ± 0.20 % dose/g
  Organ distribution Bone: 8.89 ± 0.75 % dose/g
  Organ distribution Brain: 1.13 ± 0.10 % dose/g
  Organ distribution Heart: 1.22 ± 0.13 % dose/g
  Organ distribution Kidney: 1.40 ± 0.30 % dose/g
  Organ distribution Liver: 3.36 ± 0.32 % dose/g
  Organ distribution Lung: 1.29 ± 0.19 % dose/g
  Organ distribution Muscle: 0.73 ± 0.13 % dose/g
  Organ distribution Skin: 0.85 ± 0.10 % dose/g
  Organ distribution Spleen: 1.06 ± 0.10 % dose/g
  Ratio (vs CB) Cortex: 0.81
  Ratio (vs CB) Hippocampus: 1.12
  Ratio (vs CB) Striatum: 1.28
  Regional brain distribution Cerebellum (CB): 1.09 ± 0.03 % dose/g
  Regional brain distribution Cortex: 0.88 ± 0.21 % dose/g
  Regional brain distribution Hippocampus: 1.22 ± 0.18 % dose/g
  Regional brain distribution Striatum: 1.39 ± 0.03 % dose/g

## COc1cc2c(cc1OCCCF)CCN1CC(CC(C)C)C(O)CC21 (stereo not drawn) [FP-(+)-DTBZ]
[4]
  uptake in diabetic mice: reduced
VMAT2 [5]
  Ki: 0.1 nM

## COc1cc2c(cc1OCCCF)CCN1CC(CC(C)C)C(O)CC21 (racemic) [[^18F]6b]
VMAT2 [6]
  regional labeling in presence of 1 μM (±)TBZ: completely eliminated
